Laboratory results as given in patent US10894817B2, “Fatty acid modified urocortin-2 analogs for the treatment of diabetes and chronic kidney disease” (priority 2016, dated 2021).
pEC50: −log10 of the molar value. Starred links: 1 amine or outer side, 2 acyl side, 3 side chain; linkers in the order of their positions; H or OH if unused. Non-standard residues stand in square brackets, D forms with d. Residues, ends and D or L forms follow the SMILES beside them. Groups on a side chain read outwards from the residue. *: point of attachment. C20 diacid = O=C(O)CCCCCCCCCCCCCCCCCCC(=O)*; γGlu = O=C(O)[C@H](CCC(=O)[*:2])N[*:1]; Palmitoyl = CCCCCCCCCCCCCCCC(=O)*; NMeI = CC[C@H](C)[C@H](NC)C(=O)O; AEEA = NCCOCCOCC(=O)O

Target: T1, human CRHR2b (Homo sapiens, UniProt Q13324)
T1 construct: expressed in transfected cells; host or cells: Chinese Hamster Ovary (CHO) cells, transient transfection
T1 sequence (Q13324 1-438 isoform Q13324-2): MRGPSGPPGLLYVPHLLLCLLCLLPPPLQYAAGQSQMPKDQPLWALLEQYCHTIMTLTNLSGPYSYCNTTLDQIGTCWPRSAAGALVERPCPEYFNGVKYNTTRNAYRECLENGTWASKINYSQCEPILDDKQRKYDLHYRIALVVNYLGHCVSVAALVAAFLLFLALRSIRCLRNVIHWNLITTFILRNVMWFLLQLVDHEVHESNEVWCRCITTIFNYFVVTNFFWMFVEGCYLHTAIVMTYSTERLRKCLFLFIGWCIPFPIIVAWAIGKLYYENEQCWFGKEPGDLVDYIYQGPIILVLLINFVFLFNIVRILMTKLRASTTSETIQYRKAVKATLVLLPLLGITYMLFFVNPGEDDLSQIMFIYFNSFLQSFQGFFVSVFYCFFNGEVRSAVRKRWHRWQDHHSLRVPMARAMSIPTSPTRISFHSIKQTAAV
Assay: human CRHR2b cell-based cAMP assay
Conditions: cAMP assay; Table 26, compounds of Example 9; read-out: hCRHR2b Average EC50
In short: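 ED50 values are means ± SEM over several runs, curve-fitted from cAMP in pmol, calibrated against unlabeled-cAMP standards. Detection was HTRF competition, ratio 665/620 nm, after 30 min agonist exposure at 37 °C.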

pEC50 | SMILES
7.62 | CCCCCCCCCCCCCCCC(=O)N[C@@H](CCC(=O)NCCCC[C@H](NC(=O)[C@H](C)NC(=O)[C@H](CCC(N)=O)NC(=O)[C@H](CCC(N)=O)NC(=O)[C@H](CCCCN)NC(=O)[C@H](CCC(=O)O)NC(=O)[C@H](CCCCN)NC(=O)[C@H](CCC(=O)O)NC(=O)[C@H](CCC(N)=O)NC(=O)[C@H](CCCCN)NC(=O)[C@H](CCC(=O)O)NC(=O)[C@H](CCC(N)=O)NC(=O)[C@H](CCC(=O)O)NC(=O)[C@H](CC(C)C)NC(=O)[C@H](CC(C)C)NC(=O)[C@@H](NC(=O)[C@H](CCC(N)=O)NC(=O)[C@H](CC(C)C)NC(=O)[C@H](CC(C)C)NC(=O)CNC(=O)[C@@H](NC(=O)[C@@H]1CCCN1C(=O)[C@@H](NC(=O)[C@H](CC(=O)O)NC(=O)[C@H](CC(C)C)NC(=O)[C@H](CO)NC(=O)[C@H](CC(C)C)NC(=O)[C@@H](NC(=O)[C@@H](N)[C@@H](C)CC)C(C)C)C(C)C)[C@@H](C)CC)[C@@H](C)CC)C(=O)N[C@H](C(=O)N[C@@H](CC(N)=O)C(=O)N[C@@H](C)C(=O)N[C@@H](CCCNC(=N)N)C(=O)N[C@H](C(=O)N[C@@H](CC(C)C)C(=O)N[C@@H](C)C(=O)N[C@@H](CCCNC(=N)N)C(=O)N[C@H](C(N)=O)C(C)C)[C@@H](C)CC)[C@@H](C)O)C(=O)O [Compound 37] (H-IVLSLDVPIGLLQILLEQEKQEKEKQQAK([γGlu-Palmitoyl])TNARILARV-NH2)
8.89 | CC[C@H](C)[C@H](NC)C(=O)N[C@H](C(=O)N[C@@H](CC(C)C)C(=O)N[C@@H](CO)C(=O)N[C@@H](CC(C)C)C(=O)N[C@@H](CC(=O)O)C(=O)N[C@H](C(=O)N1CCC[C@H]1C(=O)N[C@H](C(=O)NCC(=O)N[C@@H](CC(C)C)C(=O)N[C@@H](CC(C)C)C(=O)N[C@@H](CCC(N)=O)C(=O)N[C@H](C(=O)N[C@@H](CC(C)C)C(=O)N[C@@H](CC(C)C)C(=O)N[C@@H](CCC(=O)O)C(=O)N[C@@H](CCC(N)=O)C(=O)N[C@@H](CCC(=O)O)C(=O)N[C@@H](CCCCN)C(=O)N[C@@H](CCC(N)=O)C(=O)N[C@@H](CCC(=O)O)C(=O)N[C@@H](CCCCN)C(=O)N[C@@H](CCC(=O)O)C(=O)N[C@@H](CCCCN)C(=O)N[C@@H](CCC(N)=O)C(=O)N[C@@H](CCC(N)=O)C(=O)N[C@@H](C)C(=O)N[C@@H](CCCCNC(=O)CC[C@H](NC(=O)CC[C@H](NC(=O)COCCOCCNC(=O)CC[C@H](NC(=O)CC[C@H](NC(=O)CCCCCCCCCCCCCCCCCCC(=O)O)C(=O)O)C(=O)O)C(=O)O)C(=O)O)C(=O)N[C@H](C(=O)N[C@@H](CC(N)=O)C(=O)N[C@@H](C)C(=O)N[C@@H](CCC(N)=O)C(=O)N[C@H](C(=O)N[C@@H](CC(C)C)C(=O)N[C@@H](C)C(=O)N[C@@H](CCC(N)=O)C(=O)N[C@H](C(N)=O)C(C)C)[C@@H](C)CC)[C@@H](C)O)[C@@H](C)CC)[C@@H](C)CC)C(C)C)C(C)C [Compound 63] (H-[NMeI]VLSLDVPIGLLQILLEQEKQEKEKQQAK([γGlu-γGlu-AEEA-γGlu-γGlu-C20 diacid])TNAQILAQV-NH2)
8.58 | CC[C@H](C)[C@H](NC)C(=O)N[C@H](C(=O)N[C@@H](CC(C)C)C(=O)N[C@@H](CO)C(=O)N[C@@H](CC(C)C)C(=O)N[C@@H](CC(=O)O)C(=O)N[C@H](C(=O)N1CCC[C@H]1C(=O)N[C@H](C(=O)NCC(=O)N[C@@H](CC(C)C)C(=O)N[C@@H](CC(C)C)C(=O)N[C@@H](CCC(N)=O)C(=O)N[C@H](C(=O)N[C@@H](CC(C)C)C(=O)N[C@@H](CC(C)C)C(=O)N[C@@H](CCC(=O)O)C(=O)N[C@@H](CCC(N)=O)C(=O)N[C@@H](CCC(=O)O)C(=O)N[C@@H](CCCCN)C(=O)N[C@@H](CCC(N)=O)C(=O)N[C@@H](CCC(=O)O)C(=O)N[C@@H](CCCCN)C(=O)N[C@@H](CCC(=O)O)C(=O)N[C@@H](CCCCN)C(=O)N[C@@H](CCC(N)=O)C(=O)N[C@@H](CCC(N)=O)C(=O)N[C@@H](C)C(=O)N[C@@H](CCCCNC(=O)CC[C@H](NC(=O)COCCOCCNC(=O)CC[C@H](NC(=O)CC[C@H](NC(=O)CCCCCCCCCCCCCCCCCCC(=O)O)C(=O)O)C(=O)O)C(=O)O)C(=O)N[C@@H](CCC(=O)O)C(=O)N[C@@H](CC(N)=O)C(=O)N[C@@H](C)C(=O)N[C@@H](CCC(=O)O)C(=O)N[C@H](C(=O)N[C@@H](CC(C)C)C(=O)N[C@@H](C)C(=O)N[C@@H](CCC(N)=O)C(=O)N[C@H](C(N)=O)C(C)C)[C@@H](C)CC)[C@@H](C)CC)[C@@H](C)CC)C(C)C)C(C)C [Compound 59] (H-[NMeI]VLSLDVPIGLLQILLEQEKQEKEKQQAK([γGlu-AEEA-γGlu-γGlu-C20 diacid])ENAEILAQV-NH2)
8.92 | CCCCCCCCCCCCCCCC(=O)N[C@@H](CCC(=O)NCCCC[C@H](NC(=O)[C@@H](NC(=O)[C@H](CCC(N)=O)NC(=O)[C@H](CC(C)C)NC(=O)[C@H](CC(C)C)NC(=O)CNC(=O)[C@@H](NC(=O)[C@@H]1CCCN1C(=O)[C@@H](NC(=O)[C@H](CC(=O)O)NC(=O)[C@H](CC(C)C)NC(=O)[C@H](CO)NC(=O)[C@H](CC(C)C)NC(=O)[C@@H](NC(=O)[C@@H](N)[C@@H](C)CC)C(C)C)C(C)C)[C@@H](C)CC)[C@@H](C)CC)C(=O)N[C@@H](CC(C)C)C(=O)N[C@@H](CCC(=O)O)C(=O)N[C@@H](CCC(N)=O)C(=O)N[C@@H](CCC(=O)O)C(=O)N[C@@H](CCCCN)C(=O)N[C@@H](CCC(N)=O)C(=O)N[C@@H](CCC(=O)O)C(=O)N[C@@H](CCCCN)C(=O)N[C@@H](CCC(=O)O)C(=O)N[C@@H](CCCCN)C(=O)N[C@@H](CCC(N)=O)C(=O)N[C@@H](CCC(N)=O)C(=O)N[C@@H](C)C(=O)N[C@H](C(=O)N[C@H](C(=O)N[C@@H](CC(N)=O)C(=O)N[C@@H](C)C(=O)N[C@@H](CCCNC(=N)N)C(=O)N[C@H](C(=O)N[C@@H](CC(C)C)C(=O)N[C@@H](C)C(=O)N[C@@H](CCCNC(=N)N)C(=O)N[C@H](C(N)=O)C(C)C)[C@@H](C)CC)[C@@H](C)O)[C@@H](C)O)C(=O)O [Compound 22] (H-IVLSLDVPIGLLQIK([γGlu-Palmitoyl])LEQEKQEKEKQQATTNARILARV-NH2)
8.04 | CCCCCCCCCCCCCCCC(=O)N[C@@H](CCC(=O)NCCOCCOCC(=O)NCCCC[C@H](NC(=O)[C@H](CCC(=O)O)NC(=O)[C@H](CCCCN)NC(=O)[C@H](CCC(=O)O)NC(=O)[C@H](CCC(N)=O)NC(=O)[C@H](CCCCN)NC(=O)[C@H](CCC(=O)O)NC(=O)[C@H](CCC(N)=O)NC(=O)[C@H](CCC(=O)O)NC(=O)[C@H](CC(C)C)NC(=O)[C@H](CC(C)C)NC(=O)[C@@H](NC(=O)[C@H](CCC(N)=O)NC(=O)[C@H](CC(C)C)NC(=O)[C@H](CC(C)C)NC(=O)CNC(=O)[C@@H](NC(=O)[C@@H]1CCCN1C(=O)[C@@H](NC(=O)[C@H](CC(=O)O)NC(=O)[C@H](CC(C)C)NC(=O)[C@H](CO)NC(=O)[C@H](CC(C)C)NC(=O)[C@@H](NC(=O)[C@@H](N)[C@@H](C)CC)C(C)C)C(C)C)[C@@H](C)CC)[C@@H](C)CC)C(=O)N[C@@H](CCC(N)=O)C(=O)N[C@@H](CCC(N)=O)C(=O)N[C@@H](C)C(=O)N[C@H](C(=O)N[C@H](C(=O)N[C@@H](CC(N)=O)C(=O)N[C@@H](C)C(=O)N[C@@H](CCCNC(=N)N)C(=O)N[C@H](C(=O)N[C@@H](CC(C)C)C(=O)N[C@@H](C)C(=O)N[C@@H](CCCNC(=N)N)C(=O)N[C@H](C(N)=O)C(C)C)[C@@H](C)CC)[C@@H](C)O)[C@@H](C)O)C(=O)O [Compound 32] (H-IVLSLDVPIGLLQILLEQEKQEKEK([AEEA-γGlu-Palmitoyl])QQATTNARILARV-NH2)
7.91 | CCCCCCCCCCCCCCCC(=O)N[C@@H](CCC(=O)NCCCC[C@H](NC(=O)[C@H](CCC(=O)O)NC(=O)[C@H](CCCCN)NC(=O)[C@H](CCC(=O)O)NC(=O)[C@H](CCC(N)=O)NC(=O)[C@H](CCCCN)NC(=O)[C@H](CCC(=O)O)NC(=O)[C@H](CCC(N)=O)NC(=O)[C@H](CCC(=O)O)NC(=O)[C@H](CC(C)C)NC(=O)[C@H](CC(C)C)NC(=O)[C@@H](NC(=O)[C@H](CCC(N)=O)NC(=O)[C@H](CC(C)C)NC(=O)[C@H](CC(C)C)NC(=O)CNC(=O)[C@@H](NC(=O)[C@@H]1CCCN1C(=O)[C@@H](NC(=O)[C@H](CC(=O)O)NC(=O)[C@H](CC(C)C)NC(=O)[C@H](CO)NC(=O)[C@H](CC(C)C)NC(=O)[C@@H](NC(=O)[C@@H](N)[C@@H](C)CC)C(C)C)C(C)C)[C@@H](C)CC)[C@@H](C)CC)C(=O)N[C@@H](CCC(N)=O)C(=O)N[C@@H](CCC(N)=O)C(=O)N[C@@H](C)C(=O)N[C@H](C(=O)N[C@H](C(=O)N[C@@H](CC(N)=O)C(=O)N[C@@H](C)C(=O)N[C@@H](CCCNC(=N)N)C(=O)N[C@H](C(=O)N[C@@H](CC(C)C)C(=O)N[C@@H](C)C(=O)N[C@@H](CCCNC(=N)N)C(=O)N[C@H](C(N)=O)C(C)C)[C@@H](C)CC)[C@@H](C)O)[C@@H](C)O)C(=O)O [Compound 30] (H-IVLSLDVPIGLLQILLEQEKQEKEK([γGlu-Palmitoyl])QQATTNARILARV-NH2)
